# Values joined by “and” are separate entries in the source; they are usually repeats but may differ in a detail not shown here. Identical values can stand only once.
# Experiment: Pharmacokinetics study after separate oral administration in rats (HPLC-MS of plasma)
# Format: in vivo, Sprague-Dawley rats
# Conditions: for Plasma concentrations: individual rats NO. 1-5; for AUC(0-t) / Cmax / MRT(0-t) / Tmax / t1/2z / CLz/F: labelled substance = analyte, individual rats No1-No5
# Procedure: A total of 15 SPF Sprague-Dawley rats (SD, male, 190–210 g) were provided by Sino-British Sippr/BK Lab Animal Company Ltd. (Shanghai, China). The rats were kept in standard conditions (22–26 °C; 40–60% relative humidity; 12 h light/dark cycle). Throughout the rearing period, the animals had access to food and water ad libitum. Animal experiments were conducted in accordance with the standard ethical guidelines of the Laboratory Animal Management Committee of Jiangsu Province (SYXK (SU) 2016-0011).
# Following 1 week of adaptation, the rats were fasted for about 12 h before dosing, with free access to water. […] After administration of the first dose, blood samples were taken from the retro-orbital vein at 0, 5, 15, 30, 60, 90, 120, 180, 240, 360, 480, and 1,440 min and collected in heparinized tubes. The samples were centrifuged at 3,500 rpm for 10 min at 4 °C and the plasma was stored at −80 °C until analysis.
# An Agilent 1,200 series HPLC system (Agilent Technologies, Waldbronn, Germany) equipped with a quaternary pump on-line degasser, auto-sampler and column oven, and an SL G1946D quadruple mass spectrometer (Agilent Technologies, Santa Clara, CA, USA) equipped with an electrospray ionization (ESI) source, were used for separation and detection. Data were acquired and analyzed using Agilent ChemStation Software Version A.01.00 (Agilent Technologies, Santa Clara, CA, USA).
# The separation was carried out with an Amethyst C18-H column (150 × 4.6 mm, 5 μm, Sepax Technologies, Newark, DE, USA) with a guard column SB-C18 (10 × 4.6 mm, 5 μm, Phenomenex Technologies, Torrance, USA) at a constant temperature of 25 °C.
# The mass spectra were acquired using ESI interfaced to a single quadrupole mass spectrometer. The ionization conditions were as follows: drying gas (N2) flow rate of 11 L/min, drying gas temperature of 350 °C, nebulizing gas (N2) pressure of 35 psi, capillary voltage of 3,500 V, quad temperature of 100 °C, and fragment voltage of 110 V. A series of m/z were monitored using a timed program according to the retention times and characteristic ions for the corresponding HPLC-MS peak obtained by scanning from m/z 100–1,000 in the standard sample.
# Briefly, an aliquot of plasma sample (100 μL) was spiked with 5% formic acid (10 μL) in centrifuge tube. Subsequently, hydrochloric acid (2 mol/L, 10 μL) and IS solution (960.00 ng/mL, 20 μL) were added. Then ethyl acetate/n-butyl alcohol (1:1 v/v; 1,000 μL) was used to extract the components. The samples were then homogenized by vortex mixing and centrifuged for 10 min at 14,000 rpm. After centrifugation, 800 μL of supernatant was transferred to another centrifuge tube and the sample was evaporated to dryness. The residues were dissolved in 100 μL of methanol and centrifuged for 10 min at 12,000 rpm. 50 μL of the supernatant was transferred to the vial and an aliquot of 5 μL was injected into the HPLC-MS system for analysis.
# DAS 2.0 (Chinese Pharmacological Association, Shanghai, China) was used to calculate the pharmacokinetic parameters using the non-compartment model, including the area under curve (AUC), mean residence time (MRT), half-life ( t1/2z), clearance rate (CL), maximum plasma concentration (Cmax), and time (Tmax). All results are expressed as mean ± standard deviation (SD). One way analysis of variance followed by […] was used for comparison of different groups using Graph pad prism 5 software. A p-value of <0.05 was considered statistically significant.
# [1] = IQ group (oral IQ 50 mg/kg), rat plasma
# [2] = QG group (oral QG 50 mg/kg), rat plasma
# [3] = Qr group (oral Qr 50 mg/kg), rat plasma
smiles,measurement,setting,value
"O=C(O)[C@H]1O[C@@H](Oc2c(-c3ccc(O)c(O)c3)oc3cc(O)cc(O)c3c2=O)[C@H](O)[C@@H](O)[C@@H]1O [QG, Quercetin-3-O-β-D-glucuronide]",Plasma concentrations,"IQ group (oral IQ 50 mg/kg), 5 min",0.7646 µg/mL and 1.0569 µg/mL
same,Plasma concentrations,"IQ group (oral IQ 50 mg/kg), 120 min",0.6158 µg/mL and 0.5082 µg/mL and 0.7807 µg/mL and 0.6334 µg/mL
same,Plasma concentrations,"IQ group (oral IQ 50 mg/kg), 180 min",0.8736 µg/mL and 0.5334 µg/mL and 0.3826 µg/mL and 0.3965 µg/mL and 0.7922 µg/mL
same,Plasma concentrations,"IQ group (oral IQ 50 mg/kg), 240 min",0.2228 µg/mL and 0.5709 µg/mL and 0.5714 µg/mL and 0.4349 µg/mL and 0.8190 µg/mL
same,Plasma concentrations,"IQ group (oral IQ 50 mg/kg), 360 min",0.1194 µg/mL and 0.8107 µg/mL and 0.4137 µg/mL and 0.6925 µg/mL and 0.8505 µg/mL
same,Plasma concentrations,"IQ group (oral IQ 50 mg/kg), 480 min",0.4225 µg/mL and 0.4165 µg/mL and 0.1673 µg/mL and 0.2461 µg/mL and 0.7377 µg/mL
same,Plasma concentrations,"IQ group (oral IQ 50 mg/kg), 1440 min",0.0935 µg/mL and 0.0847 µg/mL and 0.0809 µg/mL and 0.0651 µg/mL and 0.3494 µg/mL
same,AUC(0-t),[1],597.432 mg·min/L and 994.801 mg·min/L and 564.315 mg·min/L and 660.84 mg·min/L
same,Cmax,[1],4534 ng/mL and 5953 ng/mL and 2825 ng/mL and 2800 ng/mL and 3414 ng/mL
same,MRT(0-t),[1],4.64393 h and 8.49298 h and 6.06248 h and 5.82378 h
same,Tmax,[1],30 min
same,t1/2z,[1],7.29975 h and 8.1253 h and 14.3264 h and 6.69975 h and 7.17603 h
same,Detection in rat plasma,IQ group: oral IQ 50 mg/kg,measured
same,Plasma concentrations,"QG group (oral QG 50 mg/kg), 5 min",0.0814 µg/mL and 0.1791 µg/mL and 0.1562 µg/mL and 0.4345 µg/mL and 0.2229 µg/mL
same,Plasma concentrations,"QG group (oral QG 50 mg/kg), 120 min",0.0799 µg/mL and 0.2388 µg/mL and 0.5950 µg/mL and 0.1120 µg/mL and 0.2189 µg/mL
same,Plasma concentrations,"QG group (oral QG 50 mg/kg), 180 min",0.7950 µg/mL and 1.4327 µg/mL and 2.4032 µg/mL and 0.2061 µg/mL and 1.3248 µg/mL
same,Plasma concentrations,"QG group (oral QG 50 mg/kg), 240 min",1.3178 µg/mL and 2.6305 µg/mL and 2.4984 µg/mL and 0.6490 µg/mL and 1.6470 µg/mL
same,Plasma concentrations,"QG group (oral QG 50 mg/kg), 360 min",0.1076 µg/mL and 2.2429 µg/mL and 3.2289 µg/mL and 1.3605 µg/mL and 1.5082 µg/mL
same,Plasma concentrations,"QG group (oral QG 50 mg/kg), 480 min",0.0874 µg/mL and 0.7211 µg/mL and 1.7586 µg/mL and 0.4951 µg/mL and 0.6594 µg/mL
same,Plasma concentrations,"QG group (oral QG 50 mg/kg), 1440 min",0.0575 µg/mL and 0.2816 µg/mL and 0.1651 µg/mL and 0.1404 µg/mL and 0.1134 µg/mL
same,AUC(0-t),[2],268.635 mg·min/L and 1176.18 mg·min/L and 1861.7 mg·min/L and 635.402 mg·min/L and 871.691 mg·min/L
same,CLz/F,[2],0.17 L/min/kg and 0.038 L/min/kg and 0.026 L/min/kg and 0.067 L/min/kg and 0.054 L/min/kg
same,Cmax,[2],1318 ng/mL and 2631 ng/mL and 3229 ng/mL and 1365 ng/mL and 1647 ng/mL
same,MRT(0-t),[2],7.8607 h and 7.11965 h and 7.95713 h and 7.028 h
same,t1/2z,[2],6.12582 h and 5.27942 h and 8.9772 h and 6.00847 h
same,Detection in rat plasma,QG group: oral QG 50 mg/kg,could be detected in rat plasma
same,CL,"QG group: oral QG 50 mg/kg, rat plasma, mean ± SD, n = 5",71 ± 57 mL/min/kg
same,Plasma concentrations,"Qr group (oral Qr 50 mg/kg), 5 min",0.3755 µg/mL and 1.9735 µg/mL and 1.3717 µg/mL and 1.2834 µg/mL
same,Plasma concentrations,"Qr group (oral Qr 50 mg/kg), 120 min",1.6399 µg/mL and 0.4649 µg/mL and 2.4126 µg/mL and 2.1713 µg/mL and 0.6055 µg/mL
same,Plasma concentrations,"Qr group (oral Qr 50 mg/kg), 180 min",1.1714 µg/mL and 0.4542 µg/mL and 1.7560 µg/mL and 4.1932 µg/mL and 1.1826 µg/mL
same,Plasma concentrations,"Qr group (oral Qr 50 mg/kg), 240 min",1.0033 µg/mL and 1.3275 µg/mL and 1.0605 µg/mL and 1.9477 µg/mL and 0.8307 µg/mL
same,Plasma concentrations,"Qr group (oral Qr 50 mg/kg), 360 min",1.0844 µg/mL and 1.0457 µg/mL and 0.9781 µg/mL and 1.2903 µg/mL and 0.5532 µg/mL
same,Plasma concentrations,"Qr group (oral Qr 50 mg/kg), 480 min",0.9932 µg/mL and 0.4529 µg/mL and 0.7247 µg/mL and 0.7786 µg/mL and 0.5843 µg/mL
same,Plasma concentrations,"Qr group (oral Qr 50 mg/kg), 1440 min",0.1552 μg/mL and 0.4031 μg/mL and 0.5308 μg/mL and 0.0000 μg/mL (2×)
same,AUC(0-t),[3],1269.04 mg·min/L and 1058.23 mg·min/L and 1705.01 mg·min/L and 1261.98 mg·min/L and 455.81 mg·min/L
same,CLz/F,[3],0.037 L/min/kg and 0.034 L/min/kg (2×) and 0.019 L/min/kg and 0.093 L/min/kg
same,Cmax,[3],4415 ng/mL and 6941.3 ng/mL and 9165 ng/mL and 9211 ng/mL and 2540 ng/mL
same,MRT(0-t),[3],6.1781 h and 7.68988 h and 6.69422 h and 2.72245 h and 3.04182 h
same,Tmax,[3],30 min and 60 min (2×)
same,t1/2z,[3],7.30138 h and 12.1634 h and 20.1775 h and 3.02307 h and 2.81598 h
same,Detection in rat plasma,Qr group: oral Qr 50 mg/kg,detected
